One assay addresses YES1 (Homo sapiens, UniProt P07947). As to the kind of experiment: NanoBRET CELLinib128. The conditions noted are these: read-out: Tracer bound. (In general: BRET reads energy transfer from a luciferase to a nearby fluorophore.)
A further assay addresses TEC (Homo sapiens, UniProt P42680). As to the kind of experiment: NanoBRET CELLinib128. The conditions noted are these: read-out: Tracer bound.
The target in another assay is T1, STK17B (Homo sapiens, UniProt O94768).
T1 construct: Full-length kinase ORF (Promega, Madison, WI, USA) cloned in frame with a NanoLuc-vector was transfected into HEK293T cells; host or cells: HEK293T
Kind of assay: NanoBRET CELLinib128. The class given is binding. The conditions noted are these: 100% no effect, 0% complete tracer displacement, read-out: Tracer bound.

The target of another assay is CLK4 (Homo sapiens, UniProt Q9HAZ1). As to the kind of experiment: NanoBRET CELLinib128. The conditions noted are these: read-out: Tracer bound.
Another assay addresses CSNK1D (Homo sapiens, UniProt P48730). Kind of assay: NanoBRET CELLinib128. The conditions noted are these: read-out: Tracer bound.
A further assay addresses T2, PTK6 (Homo sapiens, UniProt Q13882).
T2 construct: Full-length kinase ORF (Promega, Madison, WI, USA) cloned in frame with a NanoLuc-vector was transfected into HEK293T cells; host or cells: HEK293T
Kind of assay: NanoBRET CELLinib128. The class given is binding. The conditions noted are these: 100% no effect, 0% complete tracer displacement, read-out: Tracer bound.

A further assay concerns the target T3, ABL1 (Homo sapiens, UniProt P00519).
T3 construct: Full-length kinase ORF (Promega, Madison, WI, USA) cloned in frame with a NanoLuc-vector was transfected into HEK293T cells; host or cells: HEK293T
Kind of assay: NanoBRET CELLinib128. Format: binding. The conditions noted are these: 100% no effect, 0% complete tracer displacement, read-out: Tracer bound.

Another assay addresses EPHA4 (Homo sapiens, UniProt P54764). Kind of assay: NanoBRET CELLinib128. The conditions noted are these: read-out: Tracer bound.
For a further assay, the target named is GSK3A (Homo sapiens, UniProt P49840). As to the kind of experiment: NanoBRET CELLinib128. The conditions noted are these: read-out: Tracer bound.
A further assay deals with T4, MARK2 (Homo sapiens, UniProt Q7KZI7).
T4 construct: Full-length kinase ORF (Promega, Madison, WI, USA) cloned in frame with a NanoLuc-vector was transfected into HEK293T cells; host or cells: HEK293T
Kind of assay: NanoBRET CELLinib128. Format: binding. The conditions noted are these: 100% no effect, 0% complete tracer displacement, read-out: Tracer bound.

The next assay has as its target LTK (Homo sapiens, UniProt P29376). As to the kind of experiment: NanoBRET CELLinib128. The conditions noted are these: read-out: Tracer bound.
The target of the next assay is CAMK1 (Homo sapiens, UniProt Q14012). Kind of assay: NanoBRET CELLinib128. The conditions noted are these: read-out: Tracer bound.
The next assay deals with PLK2 (Homo sapiens, UniProt Q9NYY3). As to the kind of experiment: NanoBRET CELLinib128. The conditions noted are these: 1 µM; 100% no effect, 0% complete tracer displacement.
The target in another assay is CDK1-CCNB1 (Homo sapiens, UniProt P06493). Kind of assay: NanoBRET CELLinib128. The conditions noted are these: read-out: Tracer bound.
For another assay, the target named is STK32B (Homo sapiens, UniProt Q9NY57). As to the kind of experiment: NanoBRET CELLinib128. The conditions noted are these: read-out: Tracer bound.
For another assay, the target named is EPHA8 (Homo sapiens, UniProt P29322). Kind of assay: NanoBRET CELLinib128. The conditions noted are these: read-out: Tracer bound.
A further assay concerns the target RIPK1 (Homo sapiens, UniProt Q13546). As to the kind of experiment: NanoBRET CELLinib128. The conditions noted are these: read-out: Tracer bound.
For a further assay, the target named is MAPK14 (Homo sapiens, UniProt Q16539). Kind of assay: Global proteomics in MOLT-4 cells. The conditions noted are these: 50 nM, 5 h. The arrangement: global protein expression profiles of MOLT-4 cells treated with 50 nM MA191 for 5 h; endogenous in cells; host or cells: MOLT-4. The class given is cell-based. The method, then:
Proteome analyses can uncover unexpected targets of PROTACs. Since AML cells with FLT3-ITD are massively damaged by MA191, we applied it to MOLT-4 cells and analyzed them by proteomics.
MOLT4 cells were lysed using a buffer (50 mM NaCl, 8 M urea, 50 mM EPPS, pH 8.5, with phosphatase and protease inhibitors) and homogenized by bead beating (3 × 30 s at 2400 strokes/min). Protein concentration was determined using the Bradford assay. Fifty micrograms of protein per sample were reduced, alkylated, and precipitated using methanol/chloroform. The dried protein pellet was resuspended in 4 M urea/50 mM HEPES (pH 7.4) and diluted to 1 M urea with 200 mM EPPS (pH 8).
Proteins were digested with LysC and trypsin (1:50, enzyme:protein) for 12 h at 37 °C. Samples were acidified to pH 2–3 with formic acid and desalted using C18 solid-phase extraction. […]
diaPASEF raw data were analyzed using DIA-NN 1.8 in library-free mode, enabling peptide/protein identification, FDR control, protein assembly, and quantification through in silico digestion and deep learning-based predictions. […] Precursor quantification used Robust LC with RT-based cross-run normalization.
Proteins with low total abundance (<2000 × number of treatments) were excluded. […] Significant differences versus control were assessed using two-sided moderated t-tests via the limma package in R framework (R Development Core Team, 2014). […]

Chain of EPHA4 (P54764 20-986): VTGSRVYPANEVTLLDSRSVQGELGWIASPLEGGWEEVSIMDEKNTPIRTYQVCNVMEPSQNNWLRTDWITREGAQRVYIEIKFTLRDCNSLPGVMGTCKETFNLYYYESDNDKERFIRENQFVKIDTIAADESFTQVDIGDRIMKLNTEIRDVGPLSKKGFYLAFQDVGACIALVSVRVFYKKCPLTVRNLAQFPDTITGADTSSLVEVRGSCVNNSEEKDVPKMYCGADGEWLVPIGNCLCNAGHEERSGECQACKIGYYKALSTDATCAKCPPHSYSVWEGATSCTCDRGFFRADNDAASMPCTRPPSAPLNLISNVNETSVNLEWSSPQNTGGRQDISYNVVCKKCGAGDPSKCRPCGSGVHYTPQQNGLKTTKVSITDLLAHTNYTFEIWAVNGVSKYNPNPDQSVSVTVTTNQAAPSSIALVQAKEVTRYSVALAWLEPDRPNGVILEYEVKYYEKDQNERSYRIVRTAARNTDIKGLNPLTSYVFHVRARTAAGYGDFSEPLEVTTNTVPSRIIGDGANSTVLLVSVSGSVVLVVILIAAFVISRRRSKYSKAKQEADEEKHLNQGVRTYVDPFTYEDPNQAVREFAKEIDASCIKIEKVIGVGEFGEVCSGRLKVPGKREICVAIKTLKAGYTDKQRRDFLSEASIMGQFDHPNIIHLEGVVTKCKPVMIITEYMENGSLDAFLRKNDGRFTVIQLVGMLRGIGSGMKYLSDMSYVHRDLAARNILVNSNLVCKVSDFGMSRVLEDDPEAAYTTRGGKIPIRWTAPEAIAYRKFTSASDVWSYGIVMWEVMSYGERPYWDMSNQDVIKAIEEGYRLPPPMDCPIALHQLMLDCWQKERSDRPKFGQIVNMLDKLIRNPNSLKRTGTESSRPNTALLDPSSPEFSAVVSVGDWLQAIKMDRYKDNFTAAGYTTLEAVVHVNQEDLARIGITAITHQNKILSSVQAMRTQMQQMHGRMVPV
Chain of GSK3A (P49840 whole entry): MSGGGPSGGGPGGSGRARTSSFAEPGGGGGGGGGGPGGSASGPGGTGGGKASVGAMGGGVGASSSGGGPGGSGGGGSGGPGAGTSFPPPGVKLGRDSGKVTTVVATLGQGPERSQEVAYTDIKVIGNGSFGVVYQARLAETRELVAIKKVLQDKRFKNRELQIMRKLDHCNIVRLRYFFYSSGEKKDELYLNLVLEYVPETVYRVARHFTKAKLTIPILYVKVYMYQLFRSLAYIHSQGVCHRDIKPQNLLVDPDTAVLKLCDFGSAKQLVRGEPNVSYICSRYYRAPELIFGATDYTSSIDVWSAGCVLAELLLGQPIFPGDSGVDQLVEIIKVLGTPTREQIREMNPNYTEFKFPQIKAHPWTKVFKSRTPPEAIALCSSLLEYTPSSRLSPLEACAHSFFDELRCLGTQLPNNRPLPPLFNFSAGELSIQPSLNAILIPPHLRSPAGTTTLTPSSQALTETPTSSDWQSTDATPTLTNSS
Chain of CAMK1 (Q14012 whole entry): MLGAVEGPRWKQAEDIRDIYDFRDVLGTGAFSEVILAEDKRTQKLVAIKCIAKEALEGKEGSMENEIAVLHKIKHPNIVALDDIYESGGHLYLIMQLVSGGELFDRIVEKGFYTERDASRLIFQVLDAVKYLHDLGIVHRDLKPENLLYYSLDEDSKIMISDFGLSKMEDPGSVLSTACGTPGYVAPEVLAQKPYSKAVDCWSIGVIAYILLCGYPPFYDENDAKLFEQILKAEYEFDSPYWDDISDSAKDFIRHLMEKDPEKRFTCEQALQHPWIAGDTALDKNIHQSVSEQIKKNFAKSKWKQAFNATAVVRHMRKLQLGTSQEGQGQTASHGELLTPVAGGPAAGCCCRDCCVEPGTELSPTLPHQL
Chain of STK32B (Q9NY57 whole entry): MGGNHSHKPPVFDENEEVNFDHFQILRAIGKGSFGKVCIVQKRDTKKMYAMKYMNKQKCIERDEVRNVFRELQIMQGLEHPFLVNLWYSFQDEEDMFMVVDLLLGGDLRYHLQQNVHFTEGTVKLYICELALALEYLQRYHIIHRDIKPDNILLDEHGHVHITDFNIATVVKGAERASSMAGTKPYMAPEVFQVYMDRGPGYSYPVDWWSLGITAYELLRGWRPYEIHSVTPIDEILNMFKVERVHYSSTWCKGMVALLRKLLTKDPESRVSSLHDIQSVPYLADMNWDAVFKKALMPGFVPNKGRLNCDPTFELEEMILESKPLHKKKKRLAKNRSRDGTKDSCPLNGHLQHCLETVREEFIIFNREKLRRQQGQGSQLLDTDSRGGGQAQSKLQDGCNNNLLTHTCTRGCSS
Chain of CDK1-CCNB1 (P06493 whole entry): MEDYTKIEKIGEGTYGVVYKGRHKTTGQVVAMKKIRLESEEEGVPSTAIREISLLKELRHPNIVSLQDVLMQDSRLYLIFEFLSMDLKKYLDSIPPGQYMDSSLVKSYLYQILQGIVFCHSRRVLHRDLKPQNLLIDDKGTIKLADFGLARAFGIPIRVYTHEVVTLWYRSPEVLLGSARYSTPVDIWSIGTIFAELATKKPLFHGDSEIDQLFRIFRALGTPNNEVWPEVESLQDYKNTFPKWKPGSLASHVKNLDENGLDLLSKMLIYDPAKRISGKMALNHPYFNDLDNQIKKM
Chain of CDK1-CCNB1 (P14635 whole entry partner): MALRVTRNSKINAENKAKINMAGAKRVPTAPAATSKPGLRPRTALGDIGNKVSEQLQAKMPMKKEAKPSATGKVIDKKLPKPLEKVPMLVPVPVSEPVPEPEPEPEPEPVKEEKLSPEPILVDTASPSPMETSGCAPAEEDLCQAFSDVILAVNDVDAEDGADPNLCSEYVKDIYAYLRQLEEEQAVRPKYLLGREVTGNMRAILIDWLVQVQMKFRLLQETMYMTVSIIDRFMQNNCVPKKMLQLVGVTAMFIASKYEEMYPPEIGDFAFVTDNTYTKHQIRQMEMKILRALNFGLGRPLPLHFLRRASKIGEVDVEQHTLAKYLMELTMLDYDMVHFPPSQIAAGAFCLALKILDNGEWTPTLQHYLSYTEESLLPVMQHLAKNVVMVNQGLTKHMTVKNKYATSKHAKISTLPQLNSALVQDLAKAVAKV
T2 sequence (Q13882 whole entry): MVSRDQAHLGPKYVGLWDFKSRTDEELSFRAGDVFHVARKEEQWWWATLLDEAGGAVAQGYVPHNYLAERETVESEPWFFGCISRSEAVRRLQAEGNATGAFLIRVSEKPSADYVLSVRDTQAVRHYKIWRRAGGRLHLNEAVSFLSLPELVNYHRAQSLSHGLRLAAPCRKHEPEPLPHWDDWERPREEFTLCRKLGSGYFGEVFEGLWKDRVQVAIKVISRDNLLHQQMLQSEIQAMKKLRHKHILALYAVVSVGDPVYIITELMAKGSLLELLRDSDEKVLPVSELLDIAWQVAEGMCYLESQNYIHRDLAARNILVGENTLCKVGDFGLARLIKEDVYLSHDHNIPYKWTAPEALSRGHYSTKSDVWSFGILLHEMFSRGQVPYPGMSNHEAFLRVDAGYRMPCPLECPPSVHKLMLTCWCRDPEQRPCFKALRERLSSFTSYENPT
T1 sequence (O94768 whole entry): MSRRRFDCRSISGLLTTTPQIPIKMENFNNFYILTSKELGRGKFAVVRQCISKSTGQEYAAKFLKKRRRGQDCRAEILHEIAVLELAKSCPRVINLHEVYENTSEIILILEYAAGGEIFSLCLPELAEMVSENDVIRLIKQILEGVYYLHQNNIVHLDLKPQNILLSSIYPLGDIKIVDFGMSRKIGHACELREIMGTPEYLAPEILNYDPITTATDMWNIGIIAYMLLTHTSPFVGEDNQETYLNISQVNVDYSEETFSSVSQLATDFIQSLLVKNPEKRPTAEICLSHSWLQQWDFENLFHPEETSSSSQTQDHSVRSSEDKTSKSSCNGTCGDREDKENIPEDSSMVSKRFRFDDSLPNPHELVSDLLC
Chain of LTK (P29376 17-864): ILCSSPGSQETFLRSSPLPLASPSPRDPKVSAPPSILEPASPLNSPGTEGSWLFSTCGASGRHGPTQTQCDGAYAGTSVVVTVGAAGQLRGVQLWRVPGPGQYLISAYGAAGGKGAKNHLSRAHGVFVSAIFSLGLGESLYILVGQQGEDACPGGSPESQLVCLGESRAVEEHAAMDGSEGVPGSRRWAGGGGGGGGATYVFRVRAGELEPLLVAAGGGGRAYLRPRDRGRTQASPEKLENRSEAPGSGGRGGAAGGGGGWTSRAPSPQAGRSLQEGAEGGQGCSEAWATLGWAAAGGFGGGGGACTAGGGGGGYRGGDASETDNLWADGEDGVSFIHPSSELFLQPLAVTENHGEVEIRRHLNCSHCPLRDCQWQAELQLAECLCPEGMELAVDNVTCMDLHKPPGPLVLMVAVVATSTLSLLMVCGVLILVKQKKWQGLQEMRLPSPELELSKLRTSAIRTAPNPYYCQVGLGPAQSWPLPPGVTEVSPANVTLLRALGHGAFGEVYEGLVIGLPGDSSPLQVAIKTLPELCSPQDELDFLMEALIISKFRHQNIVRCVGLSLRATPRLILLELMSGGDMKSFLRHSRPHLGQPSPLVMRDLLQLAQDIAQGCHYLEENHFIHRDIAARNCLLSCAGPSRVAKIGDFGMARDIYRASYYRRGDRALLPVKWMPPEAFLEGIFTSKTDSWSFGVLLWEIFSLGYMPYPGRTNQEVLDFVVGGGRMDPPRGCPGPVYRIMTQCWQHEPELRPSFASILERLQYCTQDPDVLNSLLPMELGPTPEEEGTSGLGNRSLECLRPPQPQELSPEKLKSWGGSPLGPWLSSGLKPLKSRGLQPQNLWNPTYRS
Chain of MAPK14 (Q16539 whole entry): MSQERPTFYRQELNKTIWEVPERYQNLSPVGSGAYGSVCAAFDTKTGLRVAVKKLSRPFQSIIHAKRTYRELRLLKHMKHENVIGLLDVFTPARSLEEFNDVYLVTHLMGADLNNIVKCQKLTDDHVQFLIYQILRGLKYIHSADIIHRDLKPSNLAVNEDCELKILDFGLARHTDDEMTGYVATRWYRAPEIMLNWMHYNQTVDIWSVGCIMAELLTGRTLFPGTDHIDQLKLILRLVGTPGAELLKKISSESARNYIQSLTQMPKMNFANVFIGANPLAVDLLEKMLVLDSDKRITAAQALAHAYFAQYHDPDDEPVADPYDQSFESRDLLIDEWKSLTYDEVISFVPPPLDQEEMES

`CNC(=O)c1cc(Oc2ccc(NC(=O)Nc3cc(C(C)(C)C)on3)cc2)ccn1` [MA68, reference compound]: the remaining activity at 1 µM turned out to be 77.1% on YES1; 107% at TEC; 102% on STK17B; 93.8% at CLK4; 104% at CSNK1D; 67.6% at PTK6. Also, the remaining activity at 1 µM turned out to be 71.8% at ABL1; 33.7% at EPHA4; 95.9% on GSK3A; 112% on MARK2; 102% on LTK; 100% at CAMK1. The remaining activity at 1 µM is 98% on CDK1-CCNB1, 104% on STK32B, 38.9% on EPHA8 and 93.3% at RIPK1. On PLK2, this molecule registered a Tracer bound of 98.1%.

On to `Cc1ncsc1-c1ccc([C@H](C)NC(=O)[C@@H]2C[C@@H](O)CN2C(=O)[C@@H](NC(=O)[C@H]2CC[C@H](C(=O)N3CCN(CCNC(=O)c4cc(Oc5ccc(NC(=O)Nc6cc(C(C)(C)C)on6)cc5)ccn4)CC3)CC2)C(C)(C)C)cc1` [MA191, 4-(4-(3-(5-(tert-Butyl)isoxazol-3-yl)ureido)phenoxy)-N-(2-(4-(trans-4-(((S)-1-((2S,4R)-4-hydroxy-2-(((S)-1-(4-(4-methylthiazol-5-yl)phenyl)ethyl)carbamoyl)pyrrolidin-1-yl)-3,3-dimethyl-1-oxobutan-2-yl)carbamoyl)cyclohexanecarbonyl)piperazin-1-yl)ethyl)picolinamide], for which, at MAPK14, the “MAPK14 protein level, proteome analysis” value is “striking downregulation of MAPK14”. In addition, the remaining activity at 1 µM on YES1 amounted to 120%; on TEC, 113%; on STK17B, 92.4%; at CLK4 it was 100%; at CSNK1D it was 120%; at PTK6 it was 118%. Besides, the remaining activity at 1 µM on ABL1 came to 105%; at EPHA4 it was 118%; at GSK3A it was 118%; at MARK2 it was 110%; at LTK, 101%; at CAMK1 it was 93.6%. Moreover, the remaining activity at 1 µM on CDK1-CCNB1 was determined as 81.9%; on STK32B, 92.5%; on EPHA8, 120%; at RIPK1, 104%. Moreover, the Tracer bound on PLK2 is recorded as 107.6%.

Source of the values: publication PMC13210772, “Dual FLT3/MAPK14 Proteolysis-Targeting Chimera (PROTAC) Induces Potent Acute Myeloid Leukemia Cell Death” (Pharmaceuticals, 2026).
